Molecular target: T1, human LAT1 (Homo sapiens, UniProt Q01650)
T1 construct: expressed in transfected cells
Experiment: Promoting effect on amino acid efflux from human LAT1 stably expressing cell line
Type: cell-based
Protocol: In the same manner as in Example 3, the human LAT1 stably expressing cell line and the human LAT2 stably expressing cell line were seeded on separate collagen-coated 24-well plates, and after 48 hours, the cells were washed with an uptake buffer prewarmed at 37° C. An uptake buffer supplemented with 1 μM of [^14C]L-leucine or [^14C]L-alanine was added to each well, and [^14C]L-leucine or [^14C]L-alanine uptake by the cells was allowed to proceed at 37° C. for 10 minutes. […] The radioactivity in each supernatant was measured as the radioactivity of the amino acid released from the cells. Subsequently, 500 μL of 0.1 M NaOH was added to each well for cell lysis, 20 μL of the lysate was used for the measurement of the protein concentration, and the remaining lysate was used for the measurement of the residual radioactivity in the cells. The sum of the residual radioactivity and the released radioactivity in each experiment was checked to confirm that there was no great difference in the total radioactivity incorporated into the cells at the preloading among the experiments. […]
Based on the measured values of amino acid efflux at the indicated concentrations of each compound, the Km value for amino acid efflux from the human LAT1 stably expressing cell line and the Km value for amino acid efflux from the human LAT2 stably expressing cell line were calculated and shown in Table 5. […]

T1 sequence (Q01650 whole entry): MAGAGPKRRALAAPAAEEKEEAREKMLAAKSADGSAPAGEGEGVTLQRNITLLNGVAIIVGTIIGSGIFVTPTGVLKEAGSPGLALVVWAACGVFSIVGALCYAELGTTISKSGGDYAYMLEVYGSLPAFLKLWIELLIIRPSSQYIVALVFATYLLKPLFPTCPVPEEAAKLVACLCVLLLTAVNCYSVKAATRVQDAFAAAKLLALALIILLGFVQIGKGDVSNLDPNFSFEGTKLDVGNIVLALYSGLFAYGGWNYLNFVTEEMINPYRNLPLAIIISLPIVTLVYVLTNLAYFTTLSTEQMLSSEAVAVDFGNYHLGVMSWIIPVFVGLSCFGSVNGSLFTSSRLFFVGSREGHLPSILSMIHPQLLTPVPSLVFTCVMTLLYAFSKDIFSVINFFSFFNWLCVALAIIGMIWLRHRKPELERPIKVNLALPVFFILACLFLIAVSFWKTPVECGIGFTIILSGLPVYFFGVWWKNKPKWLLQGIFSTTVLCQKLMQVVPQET
T1 sequence (P08195 102-630 partner): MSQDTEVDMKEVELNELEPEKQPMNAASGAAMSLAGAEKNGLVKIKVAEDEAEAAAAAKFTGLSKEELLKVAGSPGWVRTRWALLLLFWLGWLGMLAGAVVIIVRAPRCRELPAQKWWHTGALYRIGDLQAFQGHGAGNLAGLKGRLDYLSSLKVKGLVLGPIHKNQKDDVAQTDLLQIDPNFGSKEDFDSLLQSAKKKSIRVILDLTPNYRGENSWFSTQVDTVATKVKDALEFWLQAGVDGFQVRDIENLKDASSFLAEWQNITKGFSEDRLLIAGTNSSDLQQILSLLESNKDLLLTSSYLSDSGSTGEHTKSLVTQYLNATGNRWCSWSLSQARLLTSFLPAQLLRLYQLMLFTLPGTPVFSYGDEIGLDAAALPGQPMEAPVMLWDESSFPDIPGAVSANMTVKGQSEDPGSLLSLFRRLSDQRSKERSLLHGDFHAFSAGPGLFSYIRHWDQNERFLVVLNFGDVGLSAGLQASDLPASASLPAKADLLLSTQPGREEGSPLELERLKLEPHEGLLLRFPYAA

Q: For NC(Cc1cc(OCCF)ccc1I)C(=O)O (centres unmarked) [Example 1, 2-amino-3-(5-(2-fluoroethoxy)-2-iodophenyl)propanoic acid], which “Promoting effect on amino acid efflux via human LAT1, compared with FAMT” value (10 μM, 1 min, FIG. 2) is on record?
A: twice or more higher than that of FAMT

Q: And the “Affinity for human LAT1 relative to FAMT” value (from Km values)?
A: ≥ 10 times
